Laboratory results reported in ChEMBL document CHEMBL3507680, “University of Dundee, Gates Library screen for HepG2 cell viability”.

Assay: Human HepG2 cell viability assay in 384 well format
Format: toxicity, cell-based
Parameters: dose 125 nL, time 70.5 hour; cytotoxicity at 70.5 h: concentration not given beside the values
Conditions: HepG2 cells, read-out: Inhibition

SMILES | cytotoxicity at 70.5 h [%]
COCc1nc2cc(NCc3nc(C)cs3)ccc2o1 | -2.56
COCc1nc2cc(NCc3ccc(CO)o3)ccc2o1 | 14.6
NC(=O)C1CCN(C(=O)C2SCCc3sccc32)CC1 (configuration not stated) | -10.3
O=C(C1SCCc2sccc21)N1CCN(CC(F)F)CC1 (configuration not stated) | -5.33
O=C(C1SCCc2sccc21)N1CCN(C2CC2)C(=O)C1 (configuration not stated) | -5.13
O=C(NCC1(CO)CC1)c1nnn(-c2ccc(F)cc2)c1C1CC1 | -4.26
CN1C(=O)c2ccc(NC(=O)CSc3ccc4c(c3)CCC4)cc2C1=O | -3.82
COCc1nc2cc(NCc3csc(C)n3)ccc2o1 | 3.55
Cc1ccc(C(CNCc2cccn2C)N2CCOCC2)s1 (configuration not stated) | -4.6
CCN(C(=O)CN1CCCC1Cc1ccccc1)c1ccccc1 (configuration not stated) | 8.48
CN(C)C(=O)c1cccc(NC(=O)CN2CCCCC2C2OCCO2)c1 (configuration not stated) | -5.7
COc1ccc(CNCC2CCN(CCO)CC2)cc1F | -5.24
CCN(C1CCN(C(=O)c2cccc(Cl)c2)CC1)S(C)(=O)=O | -6.65
CCOc1ccc(CNC(C)c2cccc(S(=O)(=O)NC)c2)cc1 (configuration not stated) | -9.92
CCn1cc(CNCC(c2ccc(C)s2)N2CCOCC2)cn1 (configuration not stated) | -7.64
CCN1CCOC(CNCc2ccc(OC)c(F)c2)C1 (configuration not stated) | -6.46
CNS(=O)(=O)c1cccc(C(C)NCc2ccco2)c1 (configuration not stated) | -8.45
CCC1CN(CC(=O)NCc2ccco2)CCO1 (configuration not stated) | 2.02
FC(F)(F)C1CCCn2c(CNCc3ccco3)nnc21 (configuration not stated) | 35.4
CN(CC(=O)N1CCCC1c1noc(C2CC2)n1)C1CC1 (configuration not stated) | -8.76
CCN(C)CCNC(=O)Cc1nc(-c2ccco2)oc1C | -13.2
CCOc1ncccc1NC(=O)N1CCCC1c1cc(C)no1 (configuration not stated) | -8.02
Cc1cc(C2CCCN2C(=O)NCc2ccccn2)on1 (configuration not stated) | -16.2
Cc1cc(C2CCCN2C(=O)NCc2cccnc2OC(C)C)on1 (configuration not stated) | -9.53

SMILES | cytotoxicity at 70.5 h [%]
CCS(=O)(=O)CC(=O)Nc1c(C)cnn1Cc1cc(F)ccc1F | 25.7
O=C(Cn1cnc(NC(=O)c2ccccn2)n1)NCc1ccccc1 | -12.9
CC(C)(C)CC(=O)Nc1ncn(CC(=O)NCc2ccccc2)n1 | 25.6
CCOCCNC(=O)c1cc(Br)c2c(c1)OCCO2 | -10.7
Cc1ccc(N2CCCC(N(C)Cc3nnc(C4CC4)o3)C2)nn1 (configuration not stated) | -5.49
Cc1ccc(N2CCCC(N(C)Cc3c(C)noc3C)C2)nn1 (configuration not stated) | 25.3
C=C(C)Cn1nnc(C2(NC(=O)c3ccccc3)CCCC2)n1 | -8.81
COCCCn1nnc(C2(NC(=O)c3ccccc3)CCCC2)n1 | -12.2
COCc1nc2n(n1)CCCC2Nc1nc(C(C)C)ns1 (configuration not stated) | -6.22
O=C(NC1(c2nnn(CC3CCCO3)n2)CCCC1)c1ccccc1 (configuration not stated) | -4.54
O=C(NC1(c2nnn(CC3CC3)n2)CCCC1)c1ccccc1 | -7.63
CC(C)Sc1nnnn1C1CCCC1 | -9.93
CCCOC(=O)C(C)Sc1nnnn1C1CCOCC1 (configuration not stated) | -2.83
Cc1ccc(N2CCCC(N(C)Cc3ccccn3)C2)nn1 (configuration not stated) | -10.3
CS(=O)(=O)NCCC(=O)N1CCCC1c1noc(C2CC2)n1 (configuration not stated) | -11.1
Cc1cc(NC(=O)C2CN(Cc3ccccc3)CCO2)ccn1 (configuration not stated) | 13
NC(=O)C1CCCN1Cc1cccc(NC(=O)c2cc(Cl)cc(Cl)c2)c1 (configuration not stated) | -15.9
Cc1cc(S(=O)(=O)N2CCCc3cc(F)c(F)cc32)sc1C(=O)O | -1.45
Cc1cc(S(=O)(=O)N2CCCc3ccccc32)sc1C(=O)O | -12.2
CC(C)NC(=O)CCN1CCCC1c1cccc2c1OCCO2 (configuration not stated) | -8.96
COc1ccc(-n2cnnc2SCC(=O)N(C)C(C)C)cn1 | -6.69
CCc1nc(CCNC(=O)Nc2ccc(C(=O)NC)cc2)cs1 | -1.4
COc1ccc(C(C)NCc2ccc(OC)c(OC)c2OC)cc1F (configuration not stated) | 31.6
